Literature values as cited in patent publication US20130267590A1, “RETIGABINE COMPOSITIONS” (Dr. Reddy's Laboratories Limited, priority 2011, published 2013).
Counter-ions that a name gives are not always drawn.

Assays:
[1] = system: KCNQ (Kv7.2 to 7.5) family of ion channels; settings: in vitro

Row | Structure (SMILES) | storage stability (medium to long-term storage at −18° C.) | effect on transmembrane potassium currents mediated by KCNQ channels [1] | oxidation stability (contact with air)
1 | CCOC(=O)Nc1ccc(NCc2ccc(F)cc2)cc1N [dihydrochloride salt of retigabine] | unstable | – | –
2 | CCOC(=O)Nc1ccc(NCc2ccc(F)cc2)cc1N [retigabine, ethyl 2-amino-4-(4-fluorobenzylamino) phenylcarbamate] | – | enhances transmembrane potassium currents | oxidize upon contact with air
